Measurements published in publication PMC10965373 (ChemMedChem, 2024).
In brackets after ≈: the same amount, converted by molar mass. Several values for one entry are separate records, joined by “and”; a condition that tells them apart may be missing. Identical values can stand only once.

What was measured:
[1] = cited from earlier work
[2] = tested on: human kidney epithelia cells HEK293; assay: Single concentration cytotoxicity against HEK293; details: HEK293, 50 μM, 24 h, relative to DMSO-treated cells
[3] = tested on: Mycobacterium abscessus ATCC 19977; details: in vitro; cited from earlier work
[4] = cited from earlier work; remark: listed apart in the source
[5] = male Sprague Dawley rats; cited from earlier work
[6] = In vitro microsomal stability, murine microsomal suspension
[7] = In vitro microsomal stability, human microsomal suspension
[8] = after 4 h of incubation, Medicines for Malaria Venture data; cited from earlier work
[9] = Single concentration cytotoxicity against HEK293; details: human
[10] = tested on: Mycobacterium tuberculosis H37Rv; details: in vitro; cited from earlier work
[11] = 2 μM substrate, 0.42 mg/mL microsomal proteins, 100 mM phosphate buffer pH 7.4
[12] = after 7 min, 2 μM substrate, 0.42 mg/mL microsomal proteins, pH 7.4

## O=C(N[C@H](Cc1ccccc1)C(=O)Nc1ccccc1N1CCOCC1)c1cccs1 [MMV]
[1]
  stability during incubation with human liver microsomes: highly unstable
[2]
  relative cell viability: 67%
[3]
  MIC90 against Mabs: 6.25 µM (≈ 2.72 µg/mL)
[4]
  stability during incubation with murine liver microsomes: highly unstable
[5]
  plasma levels after oral administration: insufficient plasma levels
[6]; [11]
  half-life in murine microsomal suspension: 0.9 min
[6]; [12]
  remaining substance in murine microsomal suspension: 0%
[7]; [11]
  half-life in human microsomal suspension: 1.2 min
[7]; [12]
  remaining substance in human microsomal suspension: 2%
[8]
  remaining substance in murine plasma: 60%

## O=C(N[C@H](Cc1ccccc1)C(=O)Nc1ccccc1N1CCS(=O)(=O)CC1)c1ccccc1F [compound 2, (2R)-2-[(2-fluorophenyl)formamido]-N-[2-(1,1-dioxo-1λ6-thiomorpholin-4-yl)phenyl]-3-phenylpropanamide]
[1]
  stability during incubation with human liver microsomes: highly unstable
[9]
  viability at 24 h, 50 µM: 73%
[3]
  MIC90 against Mabs: 0.78 µM and < 1 µM
[10]
  MIC90 against Mtb: < 1 µM
[4]
  stability during incubation with murine liver microsomes: highly unstable
[6]; murine microsomal suspension
  stability in murine microsomal suspension: comparably low stabilities
[7]; human microsomal suspension
  stability in human microsomal suspension: comparably low stabilities
